Tests used:
Bacillus cereus = experiment: Rapid liquid phase drug sensitivity test, enrichment rate by real-time PCR (e-DNAP, non-display method); type: cell-based; conditions: 10 μg/mL; four hours after culture; enrichment rate without antibiotic agent defined as 100%
Description: (§1) In current drug sensitivity tests, it generally takes several days to obtain results. However, when the highly sensitive quantification method in accordance with the present invention is applied, results can be obtained in only four to six hours. […] Accordingly, a sensitive test must be started once culture was carried out, so that it takes at least one day to obtain a result. An equal amount of each sample (for example, blood of septicemia) was infused into a liquid medium (BHI: Brain Heart Infusion), each sample medium was collected before culture, two hours after the culture, and four hours after the culture under the condition in which an antibiotic agent was added or not added, cells were subjected to centrifugation and pelletizing so as to obtain DNA, respectively. Furthermore, it is desirable that extraction of DNA is carried out by using an automatic nucleic acid extraction device. A real-time PCR reagent for detecting bacteria, conditions and the primer constitution were the same as in Example 2. When calculation is carried out when the quantification result before culture is defined as 0 and the quantification result two hours after and four hours after culture in which an antibiotic agent was not added is respectively defined as 100 (an enrichment rate when an antibiotic agent was not added is defined as 100%), the enrichment rate was calculated two hours after and four hours after the culture in which an antibiotic agent was added. For example, the amount of bacteria/fungi before culture is […], the amount of bacteria two hours after culture in which an antibiotic agent is not added is […], and the amount two hours after culture in which an antibiotic agent is added is […], the enrichment rate two hours after an antibiotic agent is added can be calculated by the following formula: Enrichment rate two hours after an antibiotic agent is added=[…])×100 (%) Alternatively, instead of comparing the enrichment rates, the amounts […] be compared directly. […]

[1] = tested on: Staphylococcus epidermidis; experiment: Rapid liquid phase drug sensitivity test, bacteria quantified by real-time PCR (e-DNAP, non-display method); type: cell-based; conditions: 10 μg/mL; two hours and four hours after culture
Description: as §1, with “An equal amount of each sample (for example, blood of septicemia) was infused into a liquid medium (BHI: Brain Heart Infusion), each sample medium was collected before culture, two hours after the culture, and four hours after the culture under the condition in which an antibiotic agent was added or not added, cells were subjected to centrifugation and pelletizing so as to obtain DNA, respectively. Furthermore, it is desirable that extraction of DNA is carried out by using an automatic nucleic acid extraction device. A real-time PCR reagent for detecting bacteria, conditions and the primer constitution were the same as in Example 2.” left out

[2] = tested on: bacterial 16S rRNA-derived gene; experiment: Amplification curve and melting curve analysis by real-time PCR (contamination of non-specific nucleic acid); design: species or system Escherichia coli; conditions: real-time PCR 60 cycles; template not added
Description: In order to investigate contamination of non-specific nucleic acid in the above-mentioned thermostable DNA polymerase preparations, analyses of an amplification curve and a melting curve were carried out by using real-time PCR. FIGS. 5(A) and FIG. 5(B) show analysis of amplification curves. FIGS. 6(A) and FIG. 6(B) show analysis of melting curves. Furthermore, FIG. 5(A) and FIG. 6(A) are graphs showing analysis carried out by using thermostable DNA polymerase preparation produced by using AmpliTaq Gold LD as a host. FIG. 5(B) and FIG. 6(B) are graphs showing analysis carried out by using thermostable DNA polymerase preparation produced by using S. cerevisiae as a host. Solid lines show a case in which Escherichia coli was added as a template, and broken lines show a case in which a template was not added. As the real-time PCR reagent, ×10 Buffer was obtained by adding 10 μl of ultrapure water into a 1b tube of LightCycler FastStart DNA Master SYBR GreenI (Roche). In this tube, dNTPs and SYBR GreenI in addition to a buffer reagent optimized for the Taq DNA polymerase are contained. […]

CC1(C)S[C@@H]2[C@H](NC(=O)[C@H](N)c3ccccc3)C(=O)N2[C@H]1C(=O)O [ampicillin]
enrichment rate (Bacillus cereus): 0%

Cc1nnc(SCC2=C(C(=O)O)N3C(=O)[C@@H](NC(=O)Cn4cnnn4)[C@H]3SC2)s1 [cefazolin]
enrichment rate (Bacillus cereus): 16%

CC[C@H]1OC(=O)[C@H](C)[C@@H](O[C@H]2C[C@@](C)(OC)[C@@H](O)[C@H](C)O2)[C@H](C)[C@@H](O[C@@H]2O[C@H](C)C[C@H](N(C)C)[C@H]2O)[C@](C)(O)C[C@@H](C)C(=O)[C@H](C)[C@@H](O)[C@]1(C)O [erythromycin]
drug sensitivity (comparison of amount of bacteria itself) [1]: sensitivity to EM was observed | enrichment rate (Bacillus cereus): 76%

AmpliTaq Gold LD: commercial thermostable DNA polymerase preparation (ABI), produced in bacteria and purified to minimize bacterial DNA
contamination of non-specific nucleic acid in amplification curve and melting curve [2]: contamination of non-specific nucleic acid was observed

gentamicin
drug sensitivity (comparison of amount of bacteria itself) [1]: sensitivity to GM was not observed

Reference: patent US9243272B2, “Enzyme preparation containing thermostable DNA polymerase, method for producing same, and method for detecting subject organism to be detected” (HOKKAIDO MITSUI CHEMICALS INC., priority 2009, dated 2016)
